From patent US20020137929A1, “1 - (3-heterocyclylphenyl) isothiourea, -isourea, -guanidine and -amidine herbicidal agents” (Intellectual Property Department, BASF Aktiengesellschaft, priority 1998, published 2002)

Experiments:
AMBEL (Ragweed, Common) = assay: Postemergence herbicidal evaluation; format: in vivo, Ambrosia artemisifolia; conditions: for AMBEL herbicidal rating: postemergence
Method in brief: (§1)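 Visual 0-9 injury score (stand, vigor, malformation, size, chlorosis, appearance vs untreated) taken four to five weeks post-spray, averaged across repeat tests. Test plants about two weeks old; foliar spray of acetone/water (1:1) with 0.5% surfactant delivering ~0.0156-0.500 kg active/ha.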

CASOB (Sicklepod) = assay: Postemergence herbicidal evaluation; format: in vivo, Cassia obtusifolia; conditions: for CASOB herbicidal rating: postemergence
Method in brief: as §1

GALAP (Galium) [1] = assay: Postemergence herbicidal evaluation; format: in vivo, Galium aparine; conditions: for GALAP herbicidal rating: postemergence
Method in brief: as §1

[2] = tested on: TRZAWR (Wheat, Winter, cv Riband); assay: Postemergence herbicidal evaluation; format: in vivo, Triticum aestivum; conditions: for TRZAWR herbicidal rating: postemergence
Method in brief: as §1

SETVI (Foxtail, Green) = assay: Preemergence herbicidal evaluation; format: in vivo, Setaria viridis; conditions: rated 4-5 weeks after treatment
Method in brief: (§2)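 Sown cups got a single aqueous acetone spray of test compound (roughly 0.0156–0.500 kg/ha) before seedlings emerged. Evaluation, 4–5 weeks on, used a 0–9 visual scale covering plant stand, vigor, size, malformation, chlorosis and general appearance compared with controls.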

ORYSAT (Rice, Tebonnet) = assay: Preemergence herbicidal evaluation; format: in vivo, Oryza sativa, (L.) Tebonnet; conditions: rated 4-5 weeks after treatment
Method in brief: as §2

[3] = tested on: ECHORC (Watergrass (Calif.)); assay: Preemergence weed control under flooded paddy conditions; format: in vivo, Echinochloa oryzoides; conditions: rated 3-4 weeks after treatment
Method in brief: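 Ratings on a 0-9 visual scale cover stand, vigor, malformation, size, chlorosis and overall appearance relative to a control, taken three to four weeks post-treatment. Application was into flood water over freshly sown silt loam at roughly 0.0313 to 0.500 kg/ha.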

CYPSE (Flatsedge) = assay: as above; format: in vivo, Cyperus serotinus; conditions: rated 3-4 weeks after treatment
Method in brief: (§3)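 Herbicidal effect is scored visually on a 0-9 scale against an untreated control, three to four weeks after compounds are pipetted into the flood water (1.5 to 3 cm deep) over seeds planted in silt loam at 0.5 cm depth. Rates: about 0.0313 to 0.500 kg/ha.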

MOOVA (Monochoria) = assay: as above; format: in vivo, Monochoria vaginalis; conditions: rated 3-4 weeks after treatment
Method in brief: as §3

[4] = tested on: SAGPY (Arrowhead (Pygmaea)); assay: as above; format: in vivo, Sagittaria pygmaea; conditions: rated 3-4 weeks after treatment
Method in brief: as §3

[5] = tested on: ECHORC (Watergrass (Calif.)); assay: Postemergence weed control under flooded paddy conditions; format: in vivo, Echinochloa oryzoides; conditions: postemergence weeds, 3-4 weeks after treatment
Method in brief: (§4)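 Flood-water application, about 0.0313–0.500 kg/ha a.i. in aqueous/acetone 50/50 v/v; water depth 1.5–3 cm throughout. Weeds 3–5 cm, rice 1.5–2.5 leaf. Greenhouse; 0–9 visual rating vs control at 3–4 wk.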

[6] = tested on: SAGPY (Arrowhead (Pygmaea)); assay: as above; format: in vivo, Sagittaria pygmaea; conditions: postemergence weeds, 3-4 weeks after treatment
Method in brief: as §4

[7] = tested on: GLXMAW (Soybean, Williams); assay: Postemergence herbicidal evaluation; format: in vivo, Glycine max, (L.) Merr. cv Williams
Method in brief: as §1

GALAP (Galium) [8] = assay: Preemergence herbicidal evaluation; format: in vivo, Galium aparine; conditions: rated 4-5 weeks after treatment
Method in brief: as §2

CN1C(=O)C(F)SC1=Nc1cc(N2C(=O)C3=C(CCCC3)C2=O)c(F)cc1Cl (centres unmarked) [Compound 5, N-{4-chloro-2-fluoro-5-[(5-fluoro-3-methyl-4-oxo-2-thiazolidinylidene)amino]phenyl}-1-cyclohexene-1,2-dicarboximide]
AMBEL herbicidal rating (AMBEL (Ragweed, Common); rate 0.0157 kg/ha): 0.0 | AMBEL herbicidal rating (AMBEL (Ragweed, Common); rate 0.0313 kg/ha): 0.0 | AMBEL herbicidal rating (AMBEL (Ragweed, Common); rate 0.0625 kg/ha): 0.0 | AMBEL herbicidal rating (AMBEL (Ragweed, Common); rate 0.1250 kg/ha): 0.0 | AMBEL herbicidal rating (AMBEL (Ragweed, Common); rate 0.2500 kg/ha): 2.0 | AMBEL herbicidal rating (AMBEL (Ragweed, Common); rate 0.5000 kg/ha): 9.0 | CASOB herbicidal rating (CASOB (Sicklepod); rate 0.0157 kg/ha): 0.0 | CASOB herbicidal rating (CASOB (Sicklepod); rate 0.0313 kg/ha): 0.0 | CASOB herbicidal rating (CASOB (Sicklepod); rate 0.0625 kg/ha): 0.0 | CASOB herbicidal rating (CASOB (Sicklepod); rate 0.1250 kg/ha): 0.0 | CASOB herbicidal rating (CASOB (Sicklepod); rate 0.2500 kg/ha): 0.0 | CASOB herbicidal rating (CASOB (Sicklepod); rate 0.5000 kg/ha): 9.0 | GALAP herbicidal rating (GALAP (Galium) [1]; rate 0.0157 kg/ha): 0.0 | GALAP herbicidal rating (GALAP (Galium) [1]; rate 0.0313 kg/ha): 2.0 | GALAP herbicidal rating (GALAP (Galium) [1]; rate 0.0625 kg/ha): 8.0 | GALAP herbicidal rating (GALAP (Galium) [1]; rate 0.1250 kg/ha): 9.0 | GALAP herbicidal rating (GALAP (Galium) [1]; rate 0.2500 kg/ha): 9.0 | GALAP herbicidal rating (GALAP (Galium) [1]; rate 0.5000 kg/ha): 9.0 | TRZAWR herbicidal rating ([2]; rate 0.0157 kg/ha): 3.0 | TRZAWR herbicidal rating ([2]; rate 0.0313 kg/ha): 3.0 | TRZAWR herbicidal rating ([2]; rate 0.0625 kg/ha): 3.5 | TRZAWR herbicidal rating ([2]; rate 0.1250 kg/ha): 4.5 | TRZAWR herbicidal rating ([2]; rate 0.2500 kg/ha): 5.0 | TRZAWR herbicidal rating ([2]; rate 0.5000 kg/ha): 4.5 | SETVI preemergence herbicidal rating (SETVI (Foxtail, Green); rate 0.0625 kg/ha): 0.0 | SETVI preemergence herbicidal rating (SETVI (Foxtail, Green); rate 0.1250 kg/ha): 2.0 | SETVI preemergence herbicidal rating (SETVI (Foxtail, Green); rate 0.2500 kg/ha): 6.0 | SETVI preemergence herbicidal rating (SETVI (Foxtail, Green); rate 0.5000 kg/ha): 9.0 | ORYSAT preemergence herbicidal rating (ORYSAT (Rice, Tebonnet); rate 0.0625 kg/ha): 0.0 | ORYSAT preemergence herbicidal rating (ORYSAT (Rice, Tebonnet); rate 0.1250 kg/ha): 0.0 | ORYSAT preemergence herbicidal rating (ORYSAT (Rice, Tebonnet); rate 0.2500 kg/ha): 2.0 | ORYSAT preemergence herbicidal rating (ORYSAT (Rice, Tebonnet); rate 0.5000 kg/ha): 2.0 | Herbicidal rating ECHORC ([3]; 0.1250 kg/ha): 1.0 | Herbicidal rating ECHORC ([3]; 0.2500 kg/ha): 2.0 | Herbicidal rating ECHORC ([3]; 0.5000 kg/ha): 4.0 | Herbicidal rating CYPSE (CYPSE (Flatsedge); 0.1250 kg/ha): 0.0 | Herbicidal rating CYPSE (CYPSE (Flatsedge); 0.2500 kg/ha): 0.0 | Herbicidal rating CYPSE (CYPSE (Flatsedge); 0.5000 kg/ha): 1.0 | Herbicidal rating MOOVA (MOOVA (Monochoria); 0.1250 kg/ha): 2.0 | Herbicidal rating MOOVA (MOOVA (Monochoria); 0.2500 kg/ha): 4.0 | Herbicidal rating MOOVA (MOOVA (Monochoria); 0.5000 kg/ha): 8.0 | Herbicidal rating SAGPY ([4]; 0.1250 kg/ha): 0.0 | Herbicidal rating SAGPY ([4]; 0.2500 kg/ha): 0.0 | Herbicidal rating SAGPY ([4]; 0.5000 kg/ha): 0.0 | Herbicidal rating ECHORC ([5]; rate 0.1250 kg/ha): 0.5 | Herbicidal rating ECHORC ([5]; rate 0.2500 kg/ha): 1.0 | Herbicidal rating ECHORC ([5]; rate 0.5000 kg/ha): 2.0 | Herbicidal rating SAGPY ([6]; rate 0.1250 kg/ha): 0.0 | Herbicidal rating SAGPY ([6]; rate 0.2500 kg/ha): 0.0 | Herbicidal rating SAGPY ([6]; rate 0.5000 kg/ha): 0.0

CCOC(=O)CCN1C(=O)CSC1=Nc1cc(-n2c(=O)cc(C(F)(F)F)n(C)c2=O)c(Cl)cc1Cl [Compound 32, Ethyl 2-{{2,4-dichloro-5-[3,6-dihydro-3-methyl-2,6-dioxo-4-(trifluoromethyl)-1(2H)-pyrimidinyl]-phenyl}imino}-4-oxo-3-thiazolidinepropionate]
Postemergence herbicidal rating AMBEL (AMBEL (Ragweed, Common); Rate 0.0158 kg/ha): 3.0 | Postemergence herbicidal rating AMBEL (AMBEL (Ragweed, Common); Rate 0.0313 kg/ha): 0.0 | Postemergence herbicidal rating AMBEL (AMBEL (Ragweed, Common); Rate 0.0625 kg/ha): 3.0 | Postemergence herbicidal rating AMBEL (AMBEL (Ragweed, Common); Rate 0.1250 kg/ha): 9.0 | Postemergence herbicidal rating CASOB (CASOB (Sicklepod); Rate 0.0158 kg/ha): 0.0 | Postemergence herbicidal rating CASOB (CASOB (Sicklepod); Rate 0.0313 kg/ha): 0.0 | Postemergence herbicidal rating CASOB (CASOB (Sicklepod); Rate 0.0625 kg/ha): 0.0 | Postemergence herbicidal rating CASOB (CASOB (Sicklepod); Rate 0.1250 kg/ha): 3.0 | Postemergence herbicidal rating GALAP (GALAP (Galium) [1]; Rate 0.0158 kg/ha): 0.0 | Postemergence herbicidal rating GALAP (GALAP (Galium) [1]; Rate 0.0313 kg/ha): 0.0 | Postemergence herbicidal rating GALAP (GALAP (Galium) [1]; Rate 0.0625 kg/ha): 0.0 | Postemergence herbicidal rating GALAP (GALAP (Galium) [1]; Rate 0.1250 kg/ha): 2.0 | Postemergence herbicidal rating GLXMAW ([7]; Rate 0.0158 kg/ha): 3.5 | Postemergence herbicidal rating GLXMAW ([7]; Rate 0.0313 kg/ha): 5.5 | Postemergence herbicidal rating GLXMAW ([7]; Rate 0.0625 kg/ha): 6.0 | Postemergence herbicidal rating GLXMAW ([7]; Rate 0.1250 kg/ha): 6.0 | Postemergence herbicidal rating TRZAWR ([2]; Rate 0.0158 kg/ha): 2.0 | Postemergence herbicidal rating TRZAWR ([2]; Rate 0.0313 kg/ha): 3.5 | Postemergence herbicidal rating TRZAWR ([2]; Rate 0.0625 kg/ha): 4.0 | Postemergence herbicidal rating TRZAWR ([2]; Rate 0.1250 kg/ha): 4.0 | Preemergence herbicidal rating GALAP (GALAP (Galium) [8]; rate 0.0156 kg/ha): 0.0 | Preemergence herbicidal rating GALAP (GALAP (Galium) [8]; rate 0.0313 kg/ha): 0.0 | Preemergence herbicidal rating GALAP (GALAP (Galium) [8]; rate 0.0625 kg/ha): 0.0 | Preemergence herbicidal rating GALAP (GALAP (Galium) [8]; rate 0.1250 kg/ha): 0.5 | Preemergence herbicidal rating GALAP (GALAP (Galium) [8]; rate 0.2500 kg/ha): 3.5 | Preemergence herbicidal rating GALAP (GALAP (Galium) [8]; rate 0.5000 kg/ha): 7.0 | Preemergence herbicidal rating SETVI (SETVI (Foxtail, Green); rate 0.0156 kg/ha): 0.0 | Preemergence herbicidal rating SETVI (SETVI (Foxtail, Green); rate 0.0313 kg/ha): 0.0 | Preemergence herbicidal rating SETVI (SETVI (Foxtail, Green); rate 0.0625 kg/ha): 0.5 | Preemergence herbicidal rating SETVI (SETVI (Foxtail, Green); rate 0.1250 kg/ha): 3.5 | Preemergence herbicidal rating SETVI (SETVI (Foxtail, Green); rate 0.2500 kg/ha): 9.0 | Preemergence herbicidal rating SETVI (SETVI (Foxtail, Green); rate 0.5000 kg/ha): 9.0 | Preemergence herbicidal rating ORYSAT (ORYSAT (Rice, Tebonnet); rate 0.0156 kg/ha): 0.0 | Preemergence herbicidal rating ORYSAT (ORYSAT (Rice, Tebonnet); rate 0.0313 kg/ha): 0.0 | Preemergence herbicidal rating ORYSAT (ORYSAT (Rice, Tebonnet); rate 0.0625 kg/ha): 0.0 | Preemergence herbicidal rating ORYSAT (ORYSAT (Rice, Tebonnet); rate 0.1250 kg/ha): 0.0 | Preemergence herbicidal rating ORYSAT (ORYSAT (Rice, Tebonnet); rate 0.2500 kg/ha): 1.5 | Preemergence herbicidal rating ORYSAT (ORYSAT (Rice, Tebonnet); rate 0.5000 kg/ha): 4.0 | Herbicidal rating ECHORC ([3]; 0.1250 kg/ha): 3.0 | Herbicidal rating ECHORC ([3]; 0.2500 kg/ha): 6.0 | Herbicidal rating CYPSE (CYPSE (Flatsedge); 0.1250 kg/ha): 0.0 | Herbicidal rating CYPSE (CYPSE (Flatsedge); 0.2500 kg/ha): 0.0 | Herbicidal rating SAGPY ([4]; 0.1250 kg/ha): 0.0 | Herbicidal rating SAGPY ([4]; 0.2500 kg/ha): 0.0 | Herbicidal rating ECHORC ([5]; rate 0.1250 kg/ha): 3.0 | Herbicidal rating ECHORC ([5]; rate 0.2500 kg/ha): 6.0 | Herbicidal rating SAGPY ([6]; rate 0.1250 kg/ha): 0.0 | Herbicidal rating SAGPY ([6]; rate 0.2500 kg/ha): 0.0
